# Reference: ChEMBL document CHEMBL2016464, “Identification of Inhibitors of NOD1-Induced Nuclear Factor-κB Activation” (ACS Med Chem Lett, 2011)
# Calls of active or inactive are those of the source. The calls are words filed in the database; no cut-off is given here.
# Assays:
# [1] = Metabolic stability in mouse plasma assessed as compound remaining at 1 uM after 180 mins; format: ADME, cell-free; settings: read-out: Stability
# HEK-293T [2] = experiment: Cytotoxicity against HEK293T cells at 20 uM by alamar blue assay; format: cell-based; settings: human
# [3] = Plasma concentration in mouse at 15 mg/kg, ip at 20 mins
# [4] = molecular target: 5-hydroxytryptamine receptor 2B (Homo sapiens) (UniProt P41595); experiment: Inhibition of 5HT2B receptor at 10 uM
# [5] = molecular target: T1, Aurora kinase A (Homo sapiens) (UniProt O14965); experiment: Inhibition of AURKA at 10 uM relative to control
# T1 sequence (whole entry): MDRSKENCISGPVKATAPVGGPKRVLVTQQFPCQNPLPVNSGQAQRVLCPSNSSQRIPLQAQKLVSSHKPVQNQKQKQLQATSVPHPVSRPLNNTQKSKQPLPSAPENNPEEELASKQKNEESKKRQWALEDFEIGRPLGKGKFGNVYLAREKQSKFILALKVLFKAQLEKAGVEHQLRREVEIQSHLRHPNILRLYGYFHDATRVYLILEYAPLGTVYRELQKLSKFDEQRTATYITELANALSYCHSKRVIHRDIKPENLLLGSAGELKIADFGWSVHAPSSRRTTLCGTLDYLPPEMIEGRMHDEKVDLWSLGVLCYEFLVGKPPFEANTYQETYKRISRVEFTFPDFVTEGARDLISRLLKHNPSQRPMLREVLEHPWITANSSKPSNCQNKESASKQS
# [6] = molecular target: T2, Aurora kinase C (Homo sapiens) (UniProt Q9UQB9); experiment: Inhibition of AURKC at 10 uM relative to control
# T2 sequence (whole entry): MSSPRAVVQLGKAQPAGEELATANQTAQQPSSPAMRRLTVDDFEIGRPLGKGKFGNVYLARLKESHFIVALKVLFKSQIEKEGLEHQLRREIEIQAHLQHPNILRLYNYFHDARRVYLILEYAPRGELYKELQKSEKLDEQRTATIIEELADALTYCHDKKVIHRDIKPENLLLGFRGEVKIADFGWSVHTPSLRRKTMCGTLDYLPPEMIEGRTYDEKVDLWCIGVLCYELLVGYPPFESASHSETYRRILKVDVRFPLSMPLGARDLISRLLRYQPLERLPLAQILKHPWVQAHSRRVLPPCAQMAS
# [7] = Plasma protein binding in mouse at 10 uM after 4 hrs; format: ADME, cell-free; settings: read-out: PPB (converted)
# [8] = Metabolic stability in human plasma assessed as compound remaining at 1 uM after 180 mins; format: ADME, cell-free; settings: read-out: Stability
# cells = settings: Homo sapiens, HEK-293T, 14 h
# Description: Inhibition of TNFalpha-induced NFkappaB activation in HEK293T cells after 14 hrs by luciferase reporter gene assay
# [9] = Plasma protein binding in human at 1 uM after 4 hrs; format: ADME, cell-free; settings: read-out: PPB (converted)
# [10] = Plasma concentration in mouse at 30 mg/kg, ip at 120 mins
# [11] = Metabolic stability in mouse liver microsomes assessed as compound remaining at 1 uM preincubated for 10 mins measured after 60 mins; format: ADME, Microsome; settings: read-out: Stability
# [12] = molecular target: Histamine H1 receptor (Homo sapiens) (UniProt P35367); experiment: Inhibition of H1 histamine receptor at 10 uM
# [13] = molecular target: Serine/threonine-protein kinase RIO2 (Homo sapiens) (UniProt Q9BVS4); experiment: Inhibition of RIOK2 at 10 uM relative to control
# [14] = Plasma protein binding in human at 10 uM after 4 hrs; format: ADME, cell-free; settings: read-out: PPB (converted)
# [15] = Cytotoxicity against human Fa2N-4 cells after 24 hrs by ATP-lite assay; format: cell-based; settings: read-out: LD50
# HEK-293T [16] = experiment: Inhibition of doxorubicin-induced NFkappaB activation at 0.25 to 25 uM in HEK293T cells by luciferase reporter gene assay; format: cell-based; settings: Homo sapiens
# [17] = molecular target: 5-hydroxytryptamine receptor 6 (Homo sapiens) (UniProt P50406); experiment: Inhibition of 5HT6 receptor at 10 uM
# MCF7 = experiment: Inhibition of TNFalpha-induced IL8 secretion in human MCF7 cells at 0.25 to 5 uM by ELISA; format: functional, cell-based
# [18] = molecular target: Receptor-type tyrosine-protein kinase FLT3 (Homo sapiens) (UniProt P36888); experiment: Inhibition of CFLT3 at 10 uM relative to control
# [19] = Plasma concentration in mouse at 15 mg/kg, ip at 120 mins
# [20] = Metabolic stability in human liver microsomes assessed as compound remaining at 1 uM preincubated for 10 mins measured after 60 mins; format: ADME, Microsome; settings: read-out: Stability
# HEK-293T [21] = experiment: Inhibition of PMA/ionomycin-induced NFkappaB activation at 0.25 to 25 uM in HEK293T cells by luciferase reporter gene assay; format: cell-based; settings: Homo sapiens
# [22] = molecular target: Aurora kinase B (Homo sapiens) (UniProt Q96GD4); experiment: Inhibition of AURKB at 10 uM relative to control
# [23] = molecular target: Nucleotide-binding oligomerization domain-containing protein 2 (Homo sapiens, UniProt Q9HC29); experiment: Inhibition of NOD-2 in human MCF7 cells assessed as inhibition of MDP-induced IL8 secretion at 0.25 to 5 uM by ELISA; format: cell-based
# [24] = molecular target: T3, Nucleotide-binding oligomerization domain-containing protein 1 (Homo sapiens) (UniProt Q9Y239); settings: MCF7, 0.25 to 5 uM
# T3 sequence (whole entry): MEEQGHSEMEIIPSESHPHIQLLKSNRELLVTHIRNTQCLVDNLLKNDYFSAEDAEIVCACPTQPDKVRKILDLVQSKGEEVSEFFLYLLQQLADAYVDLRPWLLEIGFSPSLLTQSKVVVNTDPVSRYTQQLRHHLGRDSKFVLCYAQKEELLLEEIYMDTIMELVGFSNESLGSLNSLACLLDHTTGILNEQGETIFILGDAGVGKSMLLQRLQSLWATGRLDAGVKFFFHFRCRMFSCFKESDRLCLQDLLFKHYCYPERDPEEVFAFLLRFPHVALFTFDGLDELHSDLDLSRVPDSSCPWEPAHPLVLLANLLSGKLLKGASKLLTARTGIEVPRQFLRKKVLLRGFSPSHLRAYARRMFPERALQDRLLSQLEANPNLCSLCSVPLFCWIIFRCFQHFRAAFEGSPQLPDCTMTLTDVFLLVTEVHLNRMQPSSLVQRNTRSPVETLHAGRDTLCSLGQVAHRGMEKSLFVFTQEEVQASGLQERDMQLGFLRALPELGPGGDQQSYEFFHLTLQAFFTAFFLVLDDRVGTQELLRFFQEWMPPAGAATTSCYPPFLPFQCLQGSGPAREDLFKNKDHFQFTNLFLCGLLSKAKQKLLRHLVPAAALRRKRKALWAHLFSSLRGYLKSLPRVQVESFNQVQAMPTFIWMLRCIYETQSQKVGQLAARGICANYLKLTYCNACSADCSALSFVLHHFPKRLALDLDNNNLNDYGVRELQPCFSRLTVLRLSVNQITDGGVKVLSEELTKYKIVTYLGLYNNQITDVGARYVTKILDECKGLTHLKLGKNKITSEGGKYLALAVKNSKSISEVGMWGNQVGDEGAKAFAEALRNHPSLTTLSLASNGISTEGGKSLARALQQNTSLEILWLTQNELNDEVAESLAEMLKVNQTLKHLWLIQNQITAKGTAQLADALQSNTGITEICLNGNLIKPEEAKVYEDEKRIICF
# [25] = Plasma protein binding in mouse at 1 uM after 4 hrs; format: ADME, cell-free; settings: read-out: PPB (converted)
# [26] = Plasma concentration in mouse at 30 mg/kg, ip at 20 mins
# [27] = Cytotoxicity against human NCI60 cells; format: cell-based
# Aurora kinase B (Homo sapiens), sequence (Q96GD4 whole entry, the tested form may be a part): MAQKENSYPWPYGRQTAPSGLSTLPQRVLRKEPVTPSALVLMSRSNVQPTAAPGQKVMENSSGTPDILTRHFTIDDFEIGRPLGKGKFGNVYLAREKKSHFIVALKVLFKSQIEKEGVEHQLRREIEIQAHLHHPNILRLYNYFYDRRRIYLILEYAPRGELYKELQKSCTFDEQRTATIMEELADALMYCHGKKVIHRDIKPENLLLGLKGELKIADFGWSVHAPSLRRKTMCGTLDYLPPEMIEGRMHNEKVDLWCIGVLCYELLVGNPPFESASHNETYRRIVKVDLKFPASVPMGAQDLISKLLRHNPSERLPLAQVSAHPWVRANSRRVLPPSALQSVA
# Serine/threonine-protein kinase RIO2 (Homo sapiens), sequence (Q9BVS4 whole entry, looked up): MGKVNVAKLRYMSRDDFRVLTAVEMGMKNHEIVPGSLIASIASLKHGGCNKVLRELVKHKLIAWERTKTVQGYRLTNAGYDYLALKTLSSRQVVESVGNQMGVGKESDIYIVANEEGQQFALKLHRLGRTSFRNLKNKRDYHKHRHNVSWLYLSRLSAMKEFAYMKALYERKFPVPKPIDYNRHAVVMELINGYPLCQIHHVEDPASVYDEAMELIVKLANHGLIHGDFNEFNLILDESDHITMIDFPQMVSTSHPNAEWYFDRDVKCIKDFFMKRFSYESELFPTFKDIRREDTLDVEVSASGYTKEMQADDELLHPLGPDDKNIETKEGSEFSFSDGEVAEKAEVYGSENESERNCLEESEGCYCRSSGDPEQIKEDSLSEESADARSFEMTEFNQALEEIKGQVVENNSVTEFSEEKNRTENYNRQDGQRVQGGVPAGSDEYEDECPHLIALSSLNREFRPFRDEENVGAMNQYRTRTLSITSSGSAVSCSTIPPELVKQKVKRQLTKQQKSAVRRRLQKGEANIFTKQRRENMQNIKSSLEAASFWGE
# Histamine H1 receptor (Homo sapiens), sequence (P35367 whole entry): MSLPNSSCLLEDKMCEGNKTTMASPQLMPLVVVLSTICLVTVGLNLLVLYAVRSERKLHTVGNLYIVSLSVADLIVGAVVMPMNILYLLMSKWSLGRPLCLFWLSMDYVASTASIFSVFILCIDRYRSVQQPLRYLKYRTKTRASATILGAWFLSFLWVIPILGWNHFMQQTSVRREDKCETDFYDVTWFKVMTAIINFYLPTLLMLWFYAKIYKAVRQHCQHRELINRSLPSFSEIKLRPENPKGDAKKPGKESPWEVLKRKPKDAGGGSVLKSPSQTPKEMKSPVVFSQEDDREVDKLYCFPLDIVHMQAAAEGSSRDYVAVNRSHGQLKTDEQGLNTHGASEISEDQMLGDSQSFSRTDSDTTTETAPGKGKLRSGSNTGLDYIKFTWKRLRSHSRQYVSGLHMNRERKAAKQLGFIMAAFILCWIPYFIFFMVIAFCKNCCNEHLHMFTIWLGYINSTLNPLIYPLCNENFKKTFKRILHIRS
# Nucleotide-binding oligomerization domain-containing protein 2, sequence (Q9HC29 whole entry, the tested form may be a part): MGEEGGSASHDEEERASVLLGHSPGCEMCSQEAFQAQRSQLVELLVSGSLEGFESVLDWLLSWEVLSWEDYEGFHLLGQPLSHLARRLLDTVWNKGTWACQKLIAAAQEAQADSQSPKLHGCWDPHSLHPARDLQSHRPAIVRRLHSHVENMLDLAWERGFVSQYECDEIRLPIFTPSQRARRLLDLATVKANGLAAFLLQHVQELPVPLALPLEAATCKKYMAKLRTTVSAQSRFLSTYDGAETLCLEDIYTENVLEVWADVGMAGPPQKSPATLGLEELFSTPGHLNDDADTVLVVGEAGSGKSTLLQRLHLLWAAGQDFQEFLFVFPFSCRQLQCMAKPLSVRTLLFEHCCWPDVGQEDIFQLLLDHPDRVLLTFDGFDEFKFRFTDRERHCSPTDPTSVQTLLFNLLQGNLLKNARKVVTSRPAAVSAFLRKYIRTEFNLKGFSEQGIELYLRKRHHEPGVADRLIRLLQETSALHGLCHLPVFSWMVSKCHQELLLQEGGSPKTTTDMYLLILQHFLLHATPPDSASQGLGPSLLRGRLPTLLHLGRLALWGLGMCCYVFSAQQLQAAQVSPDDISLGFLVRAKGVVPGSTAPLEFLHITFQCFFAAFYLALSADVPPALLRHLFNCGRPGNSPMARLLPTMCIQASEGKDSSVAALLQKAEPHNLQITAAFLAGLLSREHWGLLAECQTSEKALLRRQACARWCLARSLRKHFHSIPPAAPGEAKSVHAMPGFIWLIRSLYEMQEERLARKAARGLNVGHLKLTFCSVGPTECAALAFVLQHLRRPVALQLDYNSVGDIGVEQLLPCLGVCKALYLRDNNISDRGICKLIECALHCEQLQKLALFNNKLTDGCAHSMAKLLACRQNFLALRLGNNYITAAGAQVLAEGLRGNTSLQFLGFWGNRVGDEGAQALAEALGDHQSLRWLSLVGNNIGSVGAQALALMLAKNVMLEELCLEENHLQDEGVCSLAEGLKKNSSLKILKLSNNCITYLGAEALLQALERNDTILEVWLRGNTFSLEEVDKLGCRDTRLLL
# Receptor-type tyrosine-protein kinase FLT3 (Homo sapiens), sequence (P36888 whole entry): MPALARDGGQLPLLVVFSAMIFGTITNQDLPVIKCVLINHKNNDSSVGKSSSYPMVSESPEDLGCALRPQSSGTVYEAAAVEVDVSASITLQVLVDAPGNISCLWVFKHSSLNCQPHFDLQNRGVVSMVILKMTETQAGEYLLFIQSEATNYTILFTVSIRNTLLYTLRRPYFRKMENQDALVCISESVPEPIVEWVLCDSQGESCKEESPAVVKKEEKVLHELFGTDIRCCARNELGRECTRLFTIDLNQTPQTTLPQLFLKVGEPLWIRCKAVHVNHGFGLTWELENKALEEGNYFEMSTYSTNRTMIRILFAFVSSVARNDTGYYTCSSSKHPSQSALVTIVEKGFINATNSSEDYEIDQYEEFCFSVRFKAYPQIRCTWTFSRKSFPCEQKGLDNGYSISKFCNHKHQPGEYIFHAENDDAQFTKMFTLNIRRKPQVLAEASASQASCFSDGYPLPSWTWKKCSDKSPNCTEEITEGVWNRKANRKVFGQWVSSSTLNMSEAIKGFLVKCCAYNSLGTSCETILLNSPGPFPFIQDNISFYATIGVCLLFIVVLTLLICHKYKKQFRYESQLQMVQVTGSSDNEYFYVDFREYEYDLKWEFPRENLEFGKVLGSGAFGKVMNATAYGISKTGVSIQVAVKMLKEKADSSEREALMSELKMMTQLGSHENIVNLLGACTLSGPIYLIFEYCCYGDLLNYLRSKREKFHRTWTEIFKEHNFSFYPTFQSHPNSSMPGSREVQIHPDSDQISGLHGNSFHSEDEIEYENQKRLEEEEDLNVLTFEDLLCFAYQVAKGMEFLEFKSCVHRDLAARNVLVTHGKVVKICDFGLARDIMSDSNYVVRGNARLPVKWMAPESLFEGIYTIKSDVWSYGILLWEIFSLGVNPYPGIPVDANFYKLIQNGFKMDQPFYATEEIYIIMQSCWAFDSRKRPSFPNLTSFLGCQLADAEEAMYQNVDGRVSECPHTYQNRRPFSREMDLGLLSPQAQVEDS
# 5-hydroxytryptamine receptor 6 (Homo sapiens), sequence (P50406 whole entry): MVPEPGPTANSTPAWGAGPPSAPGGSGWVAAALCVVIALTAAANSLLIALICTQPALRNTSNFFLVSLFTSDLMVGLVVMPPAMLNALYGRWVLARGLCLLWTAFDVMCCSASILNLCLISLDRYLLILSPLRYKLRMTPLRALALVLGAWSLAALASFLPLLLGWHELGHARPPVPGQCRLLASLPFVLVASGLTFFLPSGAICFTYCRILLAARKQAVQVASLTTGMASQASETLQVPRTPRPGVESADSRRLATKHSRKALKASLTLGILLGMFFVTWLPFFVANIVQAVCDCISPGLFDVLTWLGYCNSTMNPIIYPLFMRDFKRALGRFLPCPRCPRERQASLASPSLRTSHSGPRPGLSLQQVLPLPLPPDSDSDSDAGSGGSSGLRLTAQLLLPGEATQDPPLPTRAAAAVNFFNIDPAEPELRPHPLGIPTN
# 5-hydroxytryptamine receptor 2B (Homo sapiens), sequence (P41595 whole entry): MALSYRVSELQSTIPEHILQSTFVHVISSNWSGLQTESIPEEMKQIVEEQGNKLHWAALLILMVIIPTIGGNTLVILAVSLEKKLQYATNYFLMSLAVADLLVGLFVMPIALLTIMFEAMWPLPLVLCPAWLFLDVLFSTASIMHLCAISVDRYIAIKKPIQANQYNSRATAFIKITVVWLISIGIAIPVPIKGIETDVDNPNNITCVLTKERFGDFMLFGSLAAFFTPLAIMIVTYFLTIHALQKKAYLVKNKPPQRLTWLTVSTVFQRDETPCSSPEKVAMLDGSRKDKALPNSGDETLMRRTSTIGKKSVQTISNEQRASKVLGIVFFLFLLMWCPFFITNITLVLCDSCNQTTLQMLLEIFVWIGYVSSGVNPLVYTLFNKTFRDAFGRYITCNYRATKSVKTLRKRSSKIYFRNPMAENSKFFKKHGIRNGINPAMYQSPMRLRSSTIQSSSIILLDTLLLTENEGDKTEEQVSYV
smiles,measurement,setting,value
Cc1ccc(S(=O)(=O)n2c(N)nc3ccccc32)cc1,"remaining at 3 h, 1 µM",[1],100%
same,Activity,HEK-293T [2],0%
same,concentration at 20 min,[3],1200 ng/mL
same,inhibition,[4],69%
same,inhibition,[5],inactive
same,inhibition,[6],23%
same,"fraction unbound at 4 h, 10 µM",[7],0.045
same,"remaining at 3 h, 1 µM",[8],100%
same,IC50,cells,> 20 µM
same,"fraction unbound at 4 h, 1 µM",[9],0.025
same,concentration at 2 h,[10],< 500 ng/mL
same,"remaining at 1 h, 1 µM",[11],0.8%
same,inhibition,[12],89%
same,inhibition,[13],6%
same,"fraction unbound at 4 h, 10 µM",[14],0.023
same,CC50 at 24 h,[15],> 50 µM
same,inhibition,HEK-293T [16],inactive
same,inhibition,[17],92%
same,inhibition,MCF7,inactive
same,inhibition,[18],27%
same,concentration at 2 h,[19],< 500 ng/mL
same,"remaining at 1 h, 1 µM",[20],41.8%
same,inhibition,HEK-293T [21],inactive
same,inhibition,[22],21%
same,inhibition,[23],inactive
same,inhibition,[24],Active
same,"fraction unbound at 4 h, 1 µM",[25],0.05
same,concentration at 20 min,[26],5500 ng/mL
same,Activity,[27],Non-toxic
